Assay in all cases: biochemical
Design in all cases: Eurofins KinaseProfiler full panel at Km ATP, residual kinase activity (%) relative to DMSO

One test concerns the target T1, Haspin(h) (Homo sapiens, UniProt Q8TF76).
T1 sequence (Q8TF76 1-798): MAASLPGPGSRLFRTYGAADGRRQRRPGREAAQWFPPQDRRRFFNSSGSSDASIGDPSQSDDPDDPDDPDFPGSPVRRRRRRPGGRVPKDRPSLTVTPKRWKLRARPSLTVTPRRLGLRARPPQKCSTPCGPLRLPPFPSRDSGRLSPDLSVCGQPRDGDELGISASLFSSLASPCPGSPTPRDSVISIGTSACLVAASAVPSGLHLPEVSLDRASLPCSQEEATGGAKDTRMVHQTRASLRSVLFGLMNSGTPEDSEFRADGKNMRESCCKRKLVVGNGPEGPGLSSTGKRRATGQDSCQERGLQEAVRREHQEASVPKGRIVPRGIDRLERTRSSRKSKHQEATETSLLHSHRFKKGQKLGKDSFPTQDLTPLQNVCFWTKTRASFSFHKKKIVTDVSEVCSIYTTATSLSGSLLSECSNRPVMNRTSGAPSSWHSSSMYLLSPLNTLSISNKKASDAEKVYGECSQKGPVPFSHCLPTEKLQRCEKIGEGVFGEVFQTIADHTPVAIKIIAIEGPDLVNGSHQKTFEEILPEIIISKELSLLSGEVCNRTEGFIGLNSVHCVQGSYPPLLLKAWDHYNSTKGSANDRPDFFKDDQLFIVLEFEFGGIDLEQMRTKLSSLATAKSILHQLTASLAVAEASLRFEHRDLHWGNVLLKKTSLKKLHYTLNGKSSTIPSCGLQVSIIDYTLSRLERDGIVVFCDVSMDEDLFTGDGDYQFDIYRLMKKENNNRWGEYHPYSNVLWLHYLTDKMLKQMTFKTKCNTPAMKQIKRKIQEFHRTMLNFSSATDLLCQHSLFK
A digest of the protocol: (§1)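 Radiometric kinase activity assays were run with ATP at Km and compounds at 10 µM, and remaining activity (%) was reported. A separate competitive binding screen measured DNA-tagged kinase displaced from immobilized active-site ligands by qPCR, giving percent kinase still bound at 10 µM compound in DMSO.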

Another test concerns the target T2, Abl (Q252H) (h) (Homo sapiens, UniProt P00519, Q252H).
T2 construct: gene ABL1
In a few lines: as §1

The target of another test is T3, TAO2(h) (Homo sapiens, UniProt Q9UL54).
T3 construct: gene TAOK2
T3 sequence (Q9UL54 1-1235): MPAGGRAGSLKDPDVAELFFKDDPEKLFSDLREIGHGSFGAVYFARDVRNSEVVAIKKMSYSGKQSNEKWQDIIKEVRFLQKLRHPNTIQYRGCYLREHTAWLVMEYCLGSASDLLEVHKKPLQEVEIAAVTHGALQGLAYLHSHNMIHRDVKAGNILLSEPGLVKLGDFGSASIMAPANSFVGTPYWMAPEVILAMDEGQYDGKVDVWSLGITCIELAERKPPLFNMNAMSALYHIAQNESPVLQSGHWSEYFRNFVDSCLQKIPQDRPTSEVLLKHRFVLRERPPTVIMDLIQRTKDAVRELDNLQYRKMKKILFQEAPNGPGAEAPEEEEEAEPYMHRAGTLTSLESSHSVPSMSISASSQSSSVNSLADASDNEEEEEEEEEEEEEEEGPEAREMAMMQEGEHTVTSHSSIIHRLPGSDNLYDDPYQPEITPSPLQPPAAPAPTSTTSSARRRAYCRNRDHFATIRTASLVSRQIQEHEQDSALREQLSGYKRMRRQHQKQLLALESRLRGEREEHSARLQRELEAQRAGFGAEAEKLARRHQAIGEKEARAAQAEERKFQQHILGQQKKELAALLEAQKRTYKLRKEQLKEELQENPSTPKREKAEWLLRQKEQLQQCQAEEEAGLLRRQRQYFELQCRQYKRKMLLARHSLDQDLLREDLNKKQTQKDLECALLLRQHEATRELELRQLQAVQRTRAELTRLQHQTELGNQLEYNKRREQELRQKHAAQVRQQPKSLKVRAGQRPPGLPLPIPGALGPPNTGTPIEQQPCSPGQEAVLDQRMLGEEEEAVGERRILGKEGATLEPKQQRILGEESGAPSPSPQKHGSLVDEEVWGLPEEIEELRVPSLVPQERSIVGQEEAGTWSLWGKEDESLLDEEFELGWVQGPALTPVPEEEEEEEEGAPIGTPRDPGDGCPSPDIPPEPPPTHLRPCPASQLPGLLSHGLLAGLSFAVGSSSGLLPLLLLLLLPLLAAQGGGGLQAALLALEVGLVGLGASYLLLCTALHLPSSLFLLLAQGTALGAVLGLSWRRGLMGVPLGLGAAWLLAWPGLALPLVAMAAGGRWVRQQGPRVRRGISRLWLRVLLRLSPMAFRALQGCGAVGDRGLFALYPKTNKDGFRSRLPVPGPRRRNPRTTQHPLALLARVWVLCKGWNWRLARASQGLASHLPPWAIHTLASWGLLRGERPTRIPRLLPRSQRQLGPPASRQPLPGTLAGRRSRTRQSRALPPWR
In a few lines: as §1

[1] abbreviates: read-out: Residual activity (%) Spautin-1 5aa.
Where [2] appears, read: read-out: Residual activity (%) 5as.
The mark [3] stands for this setting: read-out: Residual activity (%) 5at.
[4] abbreviates: read-out: Residual activity (%) 5ay.

Structures are written as SMILES. Like-named read-outs stand apart in the source and are kept apart here.

As to `Fc1ccc(CNc2ncnc3ccc(F)cc23)cc1` [5aa, 6-Fluoro-N-(4-fluorobenzyl)-4-Quinazolinamine], the figures for the remaining activity at 10 µM at Haspin(h) (setting [1]), at Abl (Q252H) (h) (setting [1]) and at TAO2(h) (setting [1]) were 71%, 104% and 110%, respectively.

As for `Fc1ccc(CCNc2ncnc3ccc(F)cc23)cc1` [5as, 6-Fluoro-N-[2-(4-Fluorophenyl)Ethyl]-4-Quinazolinamine], the remaining activity at 10 µM on Haspin(h) (setting [2]) was found to be 72%; at Abl (Q252H) (h) (setting [2]) it was 104%; on TAO2(h) (setting [2]), 109%.

Consider `Fc1ccc2ncnc(NCCc3ccc(Cl)cc3)c2c1` [5at, N-[2-(4-Chlorophenyl)Ethyl]-6-Fluoro-4-Quinazolinamine], for which the figures for the remaining activity at 10 µM on Haspin(h) (setting [3]), on Abl (Q252H) (h) (setting [3]) and at TAO2(h) (setting [3]) were 78%, 88% and 107%, respectively.

For `COc1ccc2ncnc(Nc3cccc(F)c3)c2c1` [5ay, N-(3-Fluorophenyl)-6-Methoxy-4-Quinazolinamine], the remaining activity at 10 µM on Haspin(h) (setting [4]) stood at 36%; on Abl (Q252H) (h) (setting [4]), 80%; on TAO2(h) (setting [4]), 112%.

For the origin of these results see article PMC7827406, “Structure–Activity Relationship (SAR) Study of Spautin-1 to Entail the Discovery of Novel NEK4 Inhibitors” (International Journal of Molecular Sciences, 2021).
